From patent US20170165361A1, “TREATMENT OF LYSOSOMAL DISORDERS (ANTI-TNF THERAPY)” (Oxford University Innovation Limited, priority 2014, published 2017)
“And” between values parts separate entries of the source, which are not always exact repeats. Identical values can stand only once. “Also recorded” adds a separate entry of the source.

Experiments:
Assay type in all cases: in vivo, mouse
Npc1−/− mice [1] = assay: Survival of Npc1−/− mice (humane end point); conditions: for effect on survival / lifespan (in words): Enbrel 200 μg/animal s.c. twice a week, Humira 20 mg/kg three times a week, Remicade 6.25 mg/kg once a week
Experimental: BALB/c mice with a mutation in the NIH allele of the Niemann Pick type Cl gene (NPCnih) were bred as heterozygotes to produce Npc1−/− (BALB/c npcnih/nih) and control genotypes (Pentchev et al., 1980). Breeding and treatment of mice were conducted as described previously (Smith et al., 2009). The humane end point of mice was defined as a loss of 10% weight within a 24 hour time frame. All procedures were conducted according to Animals (Scientific Procedures) Act 1986 under a valid Home Office License.
(§1) Enbrel® (Amgen, USA) was administered via subcutaneous injection (200 μg/animal; Koca et al., 2008) in phosphate-buffered saline (PBS) twice a week starting at […] of age (n=7). Control group animals (n=7) were administered equal volumes of PBS subcutaneously. Humira® was administered 20 mg/kg three times a week (doses converted from human doses based on differential binding coefficients against murine and human TNF) (n=4) and Remicade® 6.25 mg/kg once a week (Deveci et al., 2008) (n=5).
Upon treatment with […] Enbrel® for twice a week starting at 7 weeks of age, Npc1^−/− mice were weighed weekly until humane end point to monitor any possible effects exerted by drug treatment.

[2] = Body weight of Npc1−/− mice, weighed weekly; conditions: for effect on body weight (in words): Enbrel 200 μg twice a week, Humira 20 mg/kg three times a week, Remicade 6.25 mg/kg once a week; for body weight relative to initial weight at week 7: p<0.010
Experimental: as §1
Body weights of individual mice were recorded on a weekly basis. Tremor and locomotor analysis of both treated and control groups were conducted as described by Smith et al. (2009). The procedures are briefly detailed as follows:
Upon treatment with 200 μg Enbrel® for twice a week starting at 7 weeks of age, Npc1^−/− mice were weighed weekly until humane end point to monitor any possible effects exerted by drug treatment.

Npc1−/− mice [3] = assay: Open field rearing, manual count over 5 minutes (rearing and centre rearing); conditions: for rearing count (front limb support on side walls) / centre rearing count (no front-limb support): 5 min; for rearing count (front limb support on side walls): Remicade 6.25 mg/kg once a week; for rearing activity vs. controls (in words): FIG. 4; for centre rearing count (no front-limb support): Humira 20 mg/kg three times a week
Experimental: as §1
(§2) Spontaneous activity of each mouse was recorded weekly using both an automated activity monitor (AmLogger; Linton Instrumentation, UK) and manual counting (NPC mice have a jumping phenotype in late stages of disease that can be scored as rears in the automated system so manual counts were included for this reason). The activity monitor comprises an array of infrared beams to determine the activity and motility of the subject animal. After 5-minute acclimatization in the room, each mouse was placed in the ‘open-field’ (a plasticbox measuring 45×25×12 cm) with home cage bedding to be recorded for 5 minutes. A similar setup was used for the open field rearing study, where the number of times the mouse reared on its hind legs (either against the cage wall “rearing” or without support “centre rearing”) was counted manually for 5 minutes.
Activity levels of the mice (Npc1^−/−) were recorded and classified by either “rearing” (FIG. 4A; rearing sustained by front limb support on side walls of the open-field box) or “centre rearing” (FIG. 4B; rearing with no front-limb support). […] In particular, rearing activity was maintained in Enbrel®-treated mice until 10 weeks whilst mice in the control group were no longer able to rear without front limb support (1.71 rears vs. 0.00 rears; p=0.01).

Npc1−/− mice [4] = assay: Locomotor activity, AmLogger automated activity monitor; conditions: Enbrel 200 μg twice a week
Experimental: as §1, §2

Npc1−/− mice [5] = assay: Gait analysis, CatWalk single paw parameters; conditions: Enbrel treatment, FIG. 7
Experimental: as §1
The CatWalk™ system (Noldus Information Technology, the Netherlands) was used for monitoring changes in movement patterns as indicative of any motor complications and to assess any gait improvement in response to treatment. Animals were subjected to CatWalk™ analysis biweekly, where a minimum of three ‘runs’ were collected per animal. The data collected were subsequently examined by CatWalk™ XT 10.0 software to produce a total of 177 inter-paw and intra-paw comparison parameters.
For this reason, it can be assumed that single paw parameters would reveal more sensitive indications of treatment benefits in the short time frame allowed by this acute disease model.

[6] = 9 weeks, mean±SEM, Enbrel 200 μg twice a week, control 0.429±0.30
[7] = 10 weeks, Enbrel 200 μg twice a week, control 0.00

In the case of Infliximab [Remicade], the “effect on survival / lifespan (in words)” value (Npc1−/− mice [1]) is reported as “Neither did Humira® or Remicade® impact mice survival”, the “effect on body weight (in words)” value [2] is reported as “caused significant weight loss at weeks 8 and 9” and the “body weight relative to initial weight at week 7” value ([2]; week 8, Remicade 6.25 mg/kg once a week, vs. 101.31%) is reported as 89.11%. The “body weight relative to initial weight at week 7” value ([2]; week 9, Remicade 6.25 mg/kg once a week, vs. 97.16%) was 80.84%, the “rearing count (front limb support on side walls)” value (Npc1−/− mice [3]; 8 weeks, mean±SEM, vs. 2.86±1.03, p=0.034) was 7.80±1.71 rears and the “rearing count (front limb support on side walls)” value (Npc1−/− mice [3]; 9 weeks, mean±SEM, vs. 2.00±2.52, p=0.039) was 7.20±2.27 rears. For the same substance, the “rearing activity vs. controls (in words)” value (Npc1−/− mice [3]; open field) was “sustained level of rearing activity starting from 7 weeks, higher than the two control groups (untreated and s.c. injected) and maintained up to 12 weeks”.
For Etanercept [Enbrel], the “effect on survival / lifespan (in words)” value (Npc1−/− mice [1]) was “did not cause any significant difference in lifespan”, the lifespan (Npc1−/− mice [1]; Enbrel 200 μg/animal twice a week starting at 7 weeks of age, vs. 11.72±0.59 weeks, p=0.4840) was 11.26±0.09 weeks and the “time spent in rearing” value (Npc1−/− mice [4]; 8 weeks, 5 min recording, vs. 3.29±1.775, p=0.0447) was 16.86 ± 5.79 s. For the same substance, the “time spent in an active state” value (Npc1−/− mice [4]; 9 weeks, 5 min recording, vs. 143.43±17.625, p=0.0497) was 208.14 ± 23.85 s, the “activity parameters vs. vehicle treated control (in words)” value (Npc1−/− mice [4]; FIG. 6) was “displayed higher activity levels; also recorded: induced higher levels of activity parameters” and the “body weight relative to initial weight at 7 weeks” value ([2]; 200 μg Enbrel twice a week, time point not stated, vs. 87.46%, p=0.7270) was 89.03%. For the same substance, the “effect on body weight (in words)” value [2] was “did not cause any significant difference in body weights”, the “centre rearing count (no front-limb support)” value (Npc1−/− mice [3]; [6]) was 1.71±0.61 rears and the “centre rearing count (no front-limb support)” value (Npc1−/− mice [3]; [7]) was 1.71 rears and 1.71±0.57 rears. For the same substance, the “rearing activity vs. controls (in words)” value (Npc1−/− mice [3]; open field) was “displayed a higher level of rearing activity than control mice” and the “single paw gait parameters (in words)” value (Npc1−/− mice [5]) was “beneficial effects”.
In the case of Adalimumab [Humira], the “effect on survival / lifespan (in words)” value (Npc1−/− mice [1]) is reported as “Neither did Humira® or Remicade® impact mice survival”, the “effect on body weight (in words)” value [2] is reported as “did not impact mice weight” and the “centre rearing count (no front-limb support)” value (Npc1−/− mice [3]; 8 weeks, mean±SEM, vs. 2.00±1.35, p=0.033) is reported as 10.00±3.58 rears. For the same substance, the “centre rearing count (no front-limb support)” value (Npc1−/− mice [3]; [6]) was 8.25±2.84 rears, the “centre rearing count (no front-limb support)” value (Npc1−/− mice [3]; [7]) was 0.00 rears and the “centre rearing vs. controls and other treatments (in words)” value (Npc1−/− mice [3]; open field, FIG. 4B) was “more effective amongst the other treatments starting from 8 weeks; also recorded: sustained rearing activity beyond all control groups at later time points”.
